The subject of test [1] is 6-FAM-CUG23 (RNA, repeat) CUGCUGCUGCUGCUGCUGCUGCUGCUGCUGCUGCUGCUGCUGCUGCUGCUGCUGCUGCUGCUGCUGCUG
Kind of test: fluorescence polarization. To be noted: 250 mM NaCl, 50 μM ZnCl2, 50 mM Tris-HCl pH 7.0, 10% glycerol, 1 mM DTT, on ice, RNA 6 nM. A general note: Fluorescence polarisation rises when a labelled molecule tumbles more slowly, as on binding a larger partner.

In test [2] the test system is (CUG)12 RNA (CUGexp) (RNA, repeat) CUGCUGCUGCUGCUGCUGCUGCUGCUGCUGCUGCUG
The test can be described thus: direct fluorescence titration. To be noted: log K; fitted with HypSpec; buffer of the direct titration not stated separately.

`CC(=O)Nc1cccc(NC(=O)c2csc(NC(=O)c3ccc(Cl)cc3)n2)c1`: the binding entry in test [1] (pentamidine-like polarization at 37.5 μM) is listed as “yes”.
Take `CC1Cc2c(N)nc(NCc3ccc(CNc4nc(N)c5c(n4)NC(=O)C(C)C5)cc3)nc2NC1=O` (stereo not shown): in test [1] (saturated at 250 μM), the binding result is recorded as “yes”.
Take `CN1C(=Cc2cc[n+](C)c3ccccc23)Sc2ccccc21`: the binding constant in test [2] was 6.5(1) logarithmic units.
Take `N=C(N)c1ccc(OCCCCCOc2ccc(C(=N)N)cc2)cc1`: in test [1] (100 μM pentamidine positive control), the binding entry was “yes”.

(Values after article PMC5459475 (2017).)
